The nature of data set [1]: Solubility of cholecalciferol and cholecalciferol phosphate (disodium, acid). Type of data set: physicochemical. As to the method: Aliquots of cholecalciferol, cholecalciferol phosphate disodium, and cholecalciferol phosphate acid were added to a range of solvents including propylene glycol (PG), distilled water, methanol, ethyl acetate, ethanol, n-hexane, and the visual solubility was determined. A precise assessment of the saturation solubility was for some of the solvent systems was made using high-performance liquid chromatography (HPLC). In the HPLC solubility studies, an excess of each solute was added into 2 mL of each test solvent. The solutions were left stirring overnight at room temperature, (RT), 22° C. The saturation of the solutions was confirmed by the visual appearance of crystals and the drug suspensions were filtered through 0.2 μm cellulose acetate syringe filters, diluted with excess of mobile phase, and the solute concentration of each sample was assessed using HPLC.

A short description of data set [2]: Chemical stability of cholecalciferol and cholecalciferol phosphate disodium in donor, extraction and receiver fluids. Type of data set: physicochemical. The settings on record: for chemical stability: 37° C., 24 h. The protocol: To assess the chemical stability of the test agents in the liquids in which they were to be dissolved for the skin permeation experiments, 1 mg/mL solutions of cholecalciferol and cholecalciferol phosphate disodium in propylene glycol (PG) were prepared and incubated at 37° C. for 24 h. In addition, 100 μg/mL cholecalciferol in 50:50 PG:ethanol mixture, 100 μg/mL cholecalciferol phosphate disodium in 90:10 methanol:water mixture as well as and in 50% PG 40% Methanol: 10% water pH 3.2 (90:10) were also incubated at 37° C. for 24 hours.

The nature of data set [3]: Franz cell porcine skin permeation and deposition of cholecalciferol and cholecalciferol phosphate disodium from PG solutions. Format: in vitro ADME. As to the method: In order to assess the effect of adding phosphate to vitamin D chemical structure on the penetration of vitamin D through the skin porcine skin permeation studies were performed. Using the data from the pre-formulation studies solutions of cholecalciferol and cholecalciferol phosphate disodium, were prepared. […] The developed HPLC methods were used for quantification.
To study if the addition of the phosphate to cholecalciferol facilitated enhanced transdermal permeation, donor solutions were prepared by adding 2.5 mg/mL of cholecalciferol or cholecalciferol phosphate disodium in 100% PG. […] After 24 h, the receiver fluid was collected and analysed by HPLC methods. […]
Following homogenising solution with epidermis and dermis for 1 min by Ultra Turrax, solutions were filtered through 0.2 μm syringe filters of each bottle was collected and analysed by the HPLC method. The amount of cholecalciferol and cholecalciferol phosphate disodium on the surface of the skin, deposited in the SC, epidermis, dermis, and passed into the receiver fluid was determined. The percentage of mass recovery per cm^2 of skin was calculated, and the drug deposition profile could be obtained.

The nature of data set [4]: Cholecalciferol phosphate adhesive suitability / compatibility screen. Format: physicochemical. As to the method: Pre-formulation studies were performed to determine the compatibility of cholecalciferol phosphate (disodium and acid forms) with a range of adhesives (Table 38) that could be used to manufacture of the patch. The compatibility of the drugs with the patch excipients was assessed through checking the clarity of the mixture.
The compatibility of the adhesive with solvents and drug was established. The maximum drug loading in the adhesive following solvent evaporation was determined by mixing the drug, adhesive and co-solvents until a clear solution is obtained at different drug:adhesive ratios by placing a drop of solution onto patch backing sheet, leaving the slide to dry for 3-4 hours and examining the formed fil on the surface of the backings for evidence of drug crystals were assessed using KKmoon digital magnifier with LED light (China). Following patch optimization, the drug-adhesive solution was cast as 10×10 cm squares using of backing (3M™ Scotchpak™ Polyester Backing Film Laminate 9730). A sufficient volume of the adhesive was applied to achieve a target coating of 8 mg/cm^2. Following complete drying of the solvents, the adhesive layer was covered by M3 Release liner (SCOTCHPAK 9755), compressed, and then cut using 34 mm circular manual die cutter (SCP Super Cutting Press).

For orientation: Solubility means the dissolved amount per volume that the medium holds. Regarding cholecalciferol phosphate disodium, the Solubility was 2670 ± 310 µg/mL in data set [1] (solvent PG); 340 ± 610 µg/mL in data set [1] (solvent PG + 5% ethanol); “Clear” in data set [4] (DURO-TAK 87-2516 93.2 μL, 10% w/v drug, 1.4 mL methanol, 2.75 mL ethyl acetate, 2 μL PG, 150 μL water); “Not clear” in data set [4] (DURO-TAK 87-2516 100 μL, 10% w/v drug, 0.5 mL methanol, 0.5-1.5 mL ethyl acetate, 2 μL PG, no water); “Clear” in data set [4] (DURO-TAK 87-2516 180 μL, 5% drug, 1.4 mL methanol, 2.5 mL ethyl acetate, 4 μL PG, 150 μL water); “Clear” in data set [4] (DURO-TAK 87-2516 200 μL, 3% drug, 0.9 mL methanol, 2 mL ethyl acetate, 40 μL PG, 100 μL water). The Solubility entry in data set [4] (DURO-TAK 87-9301 suitability screen, 4 mg drug, 0.2 mL adhesive, 1-4 mL ethyl acetate, 60 μL PG) was “Opaque”; in data set [4] (DURO-TAK 87-9301 suitability screen, 4 mg drug, no adhesive, 4 mL methanol, 40 μL PG), “Clear”. The chemical stability in data set [2] (PG) turned out to be 86±5.7%; in data set [2] (extraction fluid 90:10 methanol:water), 98±1.6%; in data set [2] (receiver fluid 50:50 PG:mobile phase (90:10 methanol:water pH 3.2)) it was 71±2.7%. Besides, in data set [2] (conclusions), the “chemical stability (in words)” value is “indication of chemical instability”. Further, the “deposition compared with cholecalciferol in each skin layer” value in data set [3] (p<0.05, ANOVA) is listed as “significantly higher”. Further, in data set [3] (propylene glycol solution), the “vitamin D delivered into the skin compared to cholecalciferol” value is reported as 5 times. Also, the “compatibility with DURO-TAK 87-2516” value in data set [4] was “compatible”. The “compatibility with DURO-TAK 87-9301” value in data set [4] is reported as “did not show compatibility”. For the same substance, the “miscibility with Oppanol B12 and Oppanol N100” value in data set [4] is “did not show acceptable miscibility”. In data set [4] (DURO-TAK 87-2516), the “highest active loading without any crystallization” value is 0.6 mg/mL.

Source of the values: patent US20260306421A1, “SYSTEMS AND METHODS FOR TRANSDERMAN PATCH DELIVERY” (VITAMAX PATCH WHOLESALER LLC, priority 2022, published 2026).
